According to patent US20250388605A1, “HETEROBIFUNCTIONAL COMPOUNDS AND METHODS OF TREATING DISEASE” (Halda Therapeutics OpCo, Inc., priority 2022, published 2025):

Legend:
progesterone receptor = target: T1, progesterone receptor (Homo sapiens, UniProt P06401); assay: PR Human Progesterone NHR Binding (Agonist Radioligand) Assay, [3H]progesterone, T47D cytosolic fractions; settings: 0.5 nM [3H]progesterone, 1 hour at 4° C.
T1 sequence (P06401 679-933 limits assumed): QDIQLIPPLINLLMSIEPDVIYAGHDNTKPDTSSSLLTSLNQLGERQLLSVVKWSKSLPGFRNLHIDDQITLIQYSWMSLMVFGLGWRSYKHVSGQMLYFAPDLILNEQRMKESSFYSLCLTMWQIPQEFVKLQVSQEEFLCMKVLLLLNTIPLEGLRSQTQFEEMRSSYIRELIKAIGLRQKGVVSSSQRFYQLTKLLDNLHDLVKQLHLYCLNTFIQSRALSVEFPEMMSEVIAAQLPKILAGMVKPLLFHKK
Experimental: Exemplary compounds were tested for ability to bind to the progesterone receptor.
Compounds were tested using the PR Human Progesterone NHR Binding (Agonist Radioligand) Assay, Cerep at Eurofins Discovery using a modified version of the protocol from Sarup et al. (Cancer Res 1988; 48:5071-5078). Briefly, cytosolic fractions of T47D cells were incubated with 0.5 nM [^3H]progesterone for 1 hour at 4° C. in the absence or presence of the test compound. Nonspecific binding was determined in the presence of […] promegestone. Reactions were subjected to scintillation counting. Results are expressed as a percent inhibition of the control radioligand specific binding.

androgen receptor = target: T2, androgen receptor (Homo sapiens, UniProt P10275); assay: Assay for binding affinity to androgen receptor ([3H]methyltrienolone radioligand competition, cell cytosol); settings: binding to the androgen receptor, 1 nM [3H]methyltrienolone, 24 hr at 4° C.
T2 construct: host or cells: unnamed cells, cytosolic fraction
T2 sequence (P10275 1-920): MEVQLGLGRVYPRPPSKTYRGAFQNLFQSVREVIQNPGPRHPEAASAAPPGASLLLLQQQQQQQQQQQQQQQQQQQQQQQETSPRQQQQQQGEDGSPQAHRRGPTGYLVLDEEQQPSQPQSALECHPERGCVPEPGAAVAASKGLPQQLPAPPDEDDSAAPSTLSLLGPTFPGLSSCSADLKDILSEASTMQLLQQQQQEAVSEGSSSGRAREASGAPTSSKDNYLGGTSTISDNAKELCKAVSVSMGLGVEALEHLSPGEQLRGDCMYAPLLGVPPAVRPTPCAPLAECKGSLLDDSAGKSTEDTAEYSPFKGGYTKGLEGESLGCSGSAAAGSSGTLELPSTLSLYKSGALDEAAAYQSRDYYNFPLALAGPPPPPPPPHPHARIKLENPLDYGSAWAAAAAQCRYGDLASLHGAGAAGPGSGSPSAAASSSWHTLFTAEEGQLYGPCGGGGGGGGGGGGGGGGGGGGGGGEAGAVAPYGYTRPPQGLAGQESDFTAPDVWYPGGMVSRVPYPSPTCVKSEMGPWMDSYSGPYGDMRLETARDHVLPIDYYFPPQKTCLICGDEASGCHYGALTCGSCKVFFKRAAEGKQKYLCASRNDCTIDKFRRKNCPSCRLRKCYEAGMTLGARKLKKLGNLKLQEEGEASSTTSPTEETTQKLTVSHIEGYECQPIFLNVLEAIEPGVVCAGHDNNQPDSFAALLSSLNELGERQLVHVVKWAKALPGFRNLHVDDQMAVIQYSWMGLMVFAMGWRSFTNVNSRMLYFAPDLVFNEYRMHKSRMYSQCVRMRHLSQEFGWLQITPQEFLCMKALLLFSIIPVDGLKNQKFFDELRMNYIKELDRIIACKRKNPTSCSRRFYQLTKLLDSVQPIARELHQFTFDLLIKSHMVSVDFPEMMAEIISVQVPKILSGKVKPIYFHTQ
Experimental: Fractions of cell cytosol ([…]) were incubated for 24 hr at 4° C. with 1 nM [^3H]methyltrienolone in the absence or presence of the test compound in a buffer containing 25 mM Hepes-Tris (pH 7.4), 1 mM EDTA, 10 mM Na2MoO4, 2 mM DTT, 5 μM triamcinolone acetonide, and 10% glycerol. Nonspecific binding was determined in the presence of […] testosterone. Following incubation, the samples were filtered rapidly under vacuum through glass fiber filters (GF/B, Packard) presoaked with 0.3% PEI and rinsed several times with ice-cold 50 mM Tris-HCl using a 96-sample cell harvester (Unifilter, Packard). The filters were dried then counted for radioactivity in a scintillation counter (Topcount, Packard) using a scintillation cocktail (Microscint 0, Packard). The results are expressed as a percent inhibition of the control radioligand specific binding. The standard reference compound is testosterone, which is tested in each experiment at several concentrations to obtain a competition curve from which its IC50 is calculated.

| SMILES | Ki (progesterone receptor) | Ki (androgen receptor) |
| --- | --- | --- |
| CCS(=O)(=O)Nc1ccc(Oc2cccc(CCOC3CCN(c4ncc(C(=O)N[C@H]5C(C)(C)[C@H](Oc6ccc(C#N)c(Cl)c6)C5(C)C)cn4)CC3)c2)c(-c2cn(C)c(=O)c3[nH]ccc23)c1 [Compound I-19] | < 50 nM | < 50 nM |
| CCS(=O)(=O)Nc1ccc(Oc2cccc(N(C)C3CN(CC4CCN(c5ncc(C(=O)NC6C(C)(C)C(Oc7ccc(C#N)c(Cl)c7)C6(C)C)cn5)CC4)C3)c2)c(-c2cn(C)c(=O)c3[nH]ccc23)c1 (centres unmarked) [Compound I-39] |  | < 50 nM |
| CCS(=O)(=O)Nc1ccc(Oc2cccc(COC3CCN(c4ncc(C(=O)N[C@H]5C(C)(C)[C@H](Oc6ccc(C#N)c(Cl)c6)C5(C)C)cn4)CC3)c2)c(-c2cn(C)c(=O)c3[nH]ccc23)c1 [Compound I-18, N-((1r, 3r)-3-(3-chloro-4-cyanophenoxy)-2,2,4,4-tetramethylcyclobutyl)-2-(4-((3-(4-(ethylsulfonamido)-2-(6-methyl-7-oxo-6,7-dihydro-1H-pyrrolo[2,3-c]pyridin-4-yl)phenoxy)benzyl)oxy)piperidin-1-yl)pyrimidine-5-carboxamide] |  | < 50 nM |
| CCS(=O)(=O)Nc1ccc(Oc2cccc(OCCOCCOC3CCN(c4ncc(C(=O)N[C@H]5C(C)(C)[C@H](Oc6ccc(C#N)c(Cl)c6)C5(C)C)cn4)CC3)c2)c(-c2cn(C)c(=O)c3[nH]ccc23)c1 [Compound I-13] |  | < 50 nM |
| Cn1cc(-c2cc(N)ccc2Oc2cccc(OCCN3CCN(c4ncc(C(=O)N[C@H]5C(C)(C)[C@H](Oc6ccc(C#N)c(Cl)c6)C5(C)C)cn4)CC3)c2F)c2cc[nH]c2c1=O [Compound I-100] |  | < 50 nM |
| Cn1cc(-c2ccccc2Oc2cccc(OCCOC3CCN(c4ncc(C(=O)N[C@H]5C(C)(C)[C@H](Oc6ccc(C#N)c(Cl)c6)C5(C)C)cn4)CC3)c2)c2cc[nH]c2c1=O [Compound I-61, N-((1r, 3r)-3-(3-chloro-4-cyanophenoxy)-2,2,4,4-tetramethylcyclobutyl)-2-(4-(2-(3-(2-(6-methyl-7-oxo-6,7-dihydro-1H-pyrrolo[2,3-c]pyridin-4-yl)phenoxy)phenoxy)ethoxy)piperidin-1-yl)pyrimidine-5-carboxamide] |  | < 50 nM |
| CCS(=O)(=O)c1ccc(Oc2cccc(OCCOC3CCN(c4ccc(C(=O)N[C@H]5C(C)(C)[C@H](Oc6ccc(C#N)c(Cl)c6)C5(C)C)cn4)CC3)c2F)c(-c2cn(C)c(=O)c3[nH]ccc23)c1 [Compound I-185] | < 50 nM | < 50 nM |
| Cn1cc(-c2cc(C(C)(C)O)ccc2Oc2ccc(N3CC(CC4CCN(c5ncc(C(=O)N[C@H]6C(C)(C)[C@H](Oc7ccc(C#N)c(Cl)c7)C6(C)C)cn5)CC4)C3)cc2)c2cc[nH]c2c1=O [Compound I-232] | < 50 nM | < 50 nM |
